Laboratory results published in article PMC9276943 (Molecular Plant Pathology, 2022).

Molecular target: T1, truncated CsrD, EAL domain only (E. amylovora Ea1189) (Erwinia amylovora, UniProt A0ABX7MI01)
T1 sequence (A0ABX7MI01 403-633): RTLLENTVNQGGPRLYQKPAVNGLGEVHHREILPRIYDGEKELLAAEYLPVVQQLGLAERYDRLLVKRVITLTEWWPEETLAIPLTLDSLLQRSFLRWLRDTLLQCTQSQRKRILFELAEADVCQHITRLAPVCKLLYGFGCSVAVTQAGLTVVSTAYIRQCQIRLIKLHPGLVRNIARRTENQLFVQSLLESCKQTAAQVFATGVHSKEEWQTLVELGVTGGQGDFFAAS
Assay: streptavidin pull-down with anti-His immunoblot
Assay type: binding
Conditions: labelled compound (biotinylated c-di-GMP, 100 µM); 1.7 µM protein

## Nc1nc2c(ncn2[C@@H]2O[C@@H]3COP(=O)(O)O[C@H]4[C@@H](O)[C@H](n5cnc6c(=O)[nH]c(N)nc65)O[C@@H]4COP(=O)(O)O[C@H]3[C@H]2O)c(=O)[nH]1 [c-di-GMP]
  streptavidin pull-down with anti-His immunoblot: truncated version of CsrD that consisted of only the WT EAL domain exhibited binding
